We go through two compounds from US7052672B2, “Stabilized radiopharmaceutical compositions” (GE Healthcare Limited, priority 2000, dated 2006).

The conditions of data set [1]: paraben with M=H; at 25° C.; cited from earlier work.
Data set [2] is described as follows: 13C NMR investigation of the reaction between ascorbic acid and methylparaben. The class given is physicochemical. As for the experimental part:
Small portions of powdered sodium hydroxide were added with agitation to adjust the pH. At 3 defined pH's (pH 7.5, 8.8 and 9.6), a representative aliquot (0.5 cm^3) was transferred to an NMR tube. The 3 sampled reaction mixtures were monitored daily for one week by ^13C NMR When not being monitored, the mixtures were stored at room temperature protected from light. At the end of the monitoring period a small quantity of methanol was added to the solution to confirm that, if hydrolysis had occurred, the ^13C NMR signal for any methanol produced by transesterification would have been well separated from that for the initial methyl ester resonance.
The ^13C NMR spectra were obtained using a JEOL EX270 NMR spectrometer with a broad-band tuneable probe operating at a frequency of 67.94 MHz. The data for each spectrum was acquired over a period of about 30 min.
An aliquot (0.5 cm^3) of the colourless solution was removed and monitored by ^13C NMR spectroscopy. As part of the monitoring process the sample was placed in a Bruker AM250 NMR spectrometer after 29 hours and its ^13C NMR spectrum accumulated over a period of 16 hours. […] A small quantity of methanol was then added to the sample as a reference peak.

SMILES strings stand for the structures.

Take `CCOC(=O)c1ccc(O)cc1` [ethylparaben, Ethylparaben]: the solubility in water in data set [1] is given as 0.070% w/w at 25° C.,.

For `COC(=O)c1ccc(O)cc1` [methylparaben, Methylparaben], the “additional components from interaction of ascorbic acid and methylparaben (13C NMR)” value in data set [2] (Experiment B, pH 9.5, spectrum started after 29 hours, accumulated over 16 hours) was “no significant quantities of any additional components had been produced”. Also, the “formation of methanol from hydrolysis of methylparaben (13C NMR)” value in data set [2] (Experiment B, pH 9.5, with ascorbic acid, after 29 hours, accumulated 16 hours) is reported as “no evidence for the formation of any methanol”. Moreover, in data set [2] (even at pH approximately 9.6 after 7 days), the “reaction with ascorbic acid or hydrolysis (13C NMR)” value is “no evidence was found from ^13C NMR studies for any significant reaction between ascorbic acid and methylparaben, or any significant hydrolysis”.
